Test results as given in article PMC4226840, “An open-label study to determine the maximum tolerated dose of the multitargeted tyrosine kinase inhibitor CEP-11981 in patients with advanced cancer” (Investigational New Drugs, 2014).

Key:
[1] = Phase I dose escalation: MTD and DLTs; type: in vivo, human
Procedure: This was an open-label, nonrandomized, multicenter, dose-escalation phase I study of CEP-11981 in patients with advanced, relapsed/refractory solid tumors. The study was conducted in accordance with Good Clinical Practice: Consolidated Guidance approved by the International Conference on Harmonisation, and applicable national and local laws and regulations and approved by appropriate Independent Ethics Committees or Institutional Review Boards. All patients provided written consent before study procedures or assessments were performed.
(§1) The primary measures were MTD and DLTs. MTD was defined as the highest dose at which one-third or fewer of patients in a cohort experienced a DLT, which included grade ≥ 2 proteinuria, grade ≥ 3 nonhematologic toxicity (excluding hypertension and pain), grade ≥ 3 thrombocytopenia with bleeding, or grade 4 hematologic toxicity that was not clearly due to progressive cancer. Secondary measures included the pharmacokinetics of CEP-11981 after a single dose and multiple doses, the pharmacokinetic-pharmacodynamic profile of CEP-11981, safety, and preliminary efficacy. The efficacy endpoint was the proportion of patients who achieved complete or partial response on study (minimum of 6 weeks) according to Response Evaluation Criteria in Solid Tumors (RECIST) guidelines.
Oral CEP-11981 was administered once daily for the first 28 days of each 42-day cycle. Initial dose escalation from the starting dose of 3 mg/m^2 was by 40 % increments. After completion of additional toxicology studies and the preliminary analysis of plasma exposure in patients, the dose for the fourth cohort was doubled from the third cohort and thereafter the escalation followed a modified Fibonacci sequence. The final dose levels were: 3.0, 4.2, 5.9, 11.8, 19.7, 29.6, 41.4, 55.0, 73.0, 97.4, and 126.6 mg/m^2. The dose administered was rounded to the smallest capsule strength available. Dosing for a patient was to be stopped at the onset of a DLT and, at resolution within 14 days, could be resumed at a dose equal to 50 % of the patient’s current dose. […]

Tie-2 = tested on: Tie-2; set-up: method as in PMID 22148921; settings: cited from earlier work
[2] = tested on: advanced, relapsed/refractory solid tumors; assay: Tumor response (RECIST) in phase I patients; type: in vivo, human
Description: as §1

[3] = Phase I safety: adverse events (CTCAE v3.0)
Procedure: Adverse events were recorded and graded according to the Common Terminology Criteria for Adverse Events, version 3.0.
Physical examinations, urinalysis, ECG, and laboratory evaluations (including serum chemistry and hematology) were performed at screening and on days 1, 2, 8, 15, 22, and 29 of cycle 1; on days 1, 15, and 29 of subsequent cycles; and at the end-of-treatment follow-up visit (14 days after the last dose). Adverse events were evaluated on days 2, 8, 15, and 22 of cycle 1; on days 1, 15, and 29 of every subsequent cycle; and at the end-of-treatment follow-up visit.

Aurora A = tested on: Aurora A; set-up: method as in PMID 22148921; settings: cited from earlier work
[4] = target: fibroblast growth factor receptor-1; set-up: method as in PMID 22148921; settings: cited from earlier work
VEGFR-1 = tested on: VEGFR-1; set-up: method as in PMID 22148921; settings: in vitro; cited from earlier work
[5] = of 37 patients evaluated for tumor response

Substance: 11-(2-methylpropyl)-12,13-dihydro-2-methyl-8-(pyrimidin-2-ylamino)-4H-indazolo[5,4-a]pyrrolo[3,4-c]carbazol-4-one [CEP-11981]
- DLTs ([1]; 97.4 mg/m^2 cohort, n = 9): no DLTs were observed
- Patients with DLTs ([1]; 126.6 mg/m^2 cohort, n = 2): 2 patients
- Maximum-tolerated dose (MTD) ([1]; oral once daily, first 28 days of each 42-day cycle, patients with solid tumors): 97.4 mg/m^2
- IC50 (Tie-2): 22 nM
- Complete or partial response (RECIST) ([2]; all cohorts): no enrolled patients had complete or partial response
- Frequency of stable disease ([2]; cohorts receiving ≤ 55.0 mg/m^2 (11 of 29 patients)): 37.9%
- Frequency of stable disease ([2]; cohorts receiving ≥ 73.0 mg/m^2 (8 of 14 patients)): 57.1%
- Patients with stable disease at ≥ 6 weeks ([2]; intent-to-treat population (19 of 43 patients)): 44%
- Patients with disease progression [2, 5]: 18 patients
- Patients with stable disease at ≥ 6 weeks [2, 5]: 51%
- Grade 3/4 adverse events ([3]; 3.0 mg/m^2 n = 3): • Abdominal pain • Arthralgia • Back pain
- Grade 3/4 adverse events ([3]; 4.2 mg/m^2 n = 3): • Abdominal pain
- Grade 3/4 adverse events ([3]; 5.9 mg/m^2 n = 5): • Hyperkalemia
- Grade 3/4 adverse events ([3]; 19.7 mg/m^2 n = 3): • Back pain • Hypokalemia • Hyponatremia • Lumbar vertebral fracture
- Grade 3/4 adverse events ([3]; 55.0 mg/m^2 n = 5): • Abdominal pain • Anxiety • Arthralgia • Back pain • Cellulitis • Constipation • Hypokalemia • Impaired healing • Musculo-skeletal pain • Peripheral edema • Scrotal edema • Somnolence
- Grade 3/4 adverse events ([3]; 73.0 mg/m^2 n = 3): • Anemia • Leukopenia • Diarrhea • Decreased appetite • Musculo-skeletal pain • Neck pain • Headache • Pleural effusion
- Grade 4 leukopenia ([3]; 126.6 mg/m^2 cohort): 1 patient
- Grade 4 neutropenia ([3]; 126.6 mg/m^2 cohort): 1 patient
- Grade 3/4 adverse events ([3]; 126.6 mg/m^2 n = 2, ^b treatment-related): • Neutropenia^b • ECG change
- Grade 3/4 abdominal pain ([3]; across all groups): 7%
- Grade 3/4 back pain ([3]; across all groups): 7%
- Grade 3/4 lymphopenia ([3]; across all groups): 19%
- Grade 3/4 neutropenia ([3]; across all groups): 7%
- Patients with ECG changes ([3]; all cohorts): 2%
- Patients with hypertension ([3]; all cohorts): 2%
- Abdominal pain, any grade ([3]; all cohorts, N = 43): 30%
- Back pain, any grade ([3]; all cohorts, N = 43): 28%
- Constipation, any grade ([3]; all cohorts, N = 43): 28%
- Deaths during the study ([3]; all cohorts, N = 43): No deaths occurred
- Decreased appetite, any grade ([3]; all cohorts, N = 43): 33%
- Diarrhea, any grade ([3]; all cohorts, N = 43): 33%
- Dizziness, any grade ([3]; all cohorts, N = 43): 28%
- Dyspnea, any grade ([3]; all cohorts, N = 43): 23%
- Fatigue, any grade ([3]; all cohorts, N = 43): 51%
- Headache, any grade ([3]; all cohorts, N = 43): 28%
- Nausea, any grade ([3]; all cohorts, N = 43): 47%
- Patients with adverse events possibly, probably, or definitely related to study drug ([3]; all cohorts, N = 43): 88.3%
- Patients with grade 3 adverse events ([3]; all cohorts, N = 43): 32.6%
- Patients with grade 3 or 4 adverse events ([3]; all cohorts, N = 43): 37%
- Patients with grade 3 or 4 laboratory hematologic toxicities ([3]; all cohorts, N = 43): 18.6%
- Patients with grade 4 adverse events ([3]; all cohorts, N = 43): 4.7%
- Patients with ≥ 1 adverse event ([3]; all cohorts, N = 43): 43 patients
- Serious adverse events ([3]; all cohorts, N = 43): 12 patients
- Vomiting, any grade ([3]; all cohorts, N = 43): 28%
- IC50 (Aurora A): 42 nM
- IC50 [4]: 13 nM
- IC50 (VEGFR-1): 3 nM
